Results on one compound are retold here after patent US6436705B1, “Shape stabilized erythrocytes” (The United States of America as represented by the …, priority 1997, dated 2002).

In assay [1] the test system is Red cells. Put plainly: Oxygen carrying ability (oxygen content by CO-oximeter). Format: cell-based, human. The note with it: CO-treated. As for the experimental part: A semi-quantitative measure of oxygen carrying ability by DTBP cross-linked and reversed cells was performed. Red cells cross linked with 5 mM DTBP for different incubation times and cells reversed with DTT (see above) were processed through a membrane oxygenator to replace CO with oxygen. Oxygen saturation of the cells was measured using a CO-oximeter. After the oxygenation, cells were subjected to deoxygenation under a stream of nitrogen for 30 min. Percentage oxygen was measured again by the CO-oximeter. Oxygen binding and releasing properties for cross-linked, reversed and normal cells were compared.
We measured oxygen content (Vol%O2) of cells subjected to cross-linking and reversal with a CO-oximeter 282. […] CO-treated and cross-linked cells with 5 mM DTBP for 5 h, which underwent re-oxygenation in the membrane oxygenator had oxygen content of 7.3 Vol%O2.

Assay [2] has as its system Human erythrocytes. The assay can be described thus: Osmotic fragility test. Particulars: 5 mM DTBP. Type of assay: cell-based. As for the experimental part: An osmotic fragility test (a common clinical test) was performed on erythrocytes cross-linked with 5 mM DTBP for different incubation times and on erythrocytes cross-linked and reversed with DTT. Briefly, 1 ml of the erythrocyte suspension was taken out at regular incubation times, centrifuged, and DTBP or DTT was removed (Eppendorf centrifuge for 3 min at 3000×g). 1 ml of solutions containing buffered sodium sodium chloride at different concentrations (from 1% to 0.1% NaCl in phosphate buffer) were added to the packed cells. After 30 min the samples were centrifugated (Eppendorf centrifuge for 3 min at 3000×g), and the supernatants were processed for hemolysis measurements.

In assay [3] the test system is Human erythrocytes. Put plainly: cells. Format: cell-based. The procedure:
Packed human erythrocytes from healthy donors were obtained from the National Naval Medical Center (Bethesda, Md.) within 48 h of donation and used within 7 days. Packed erythrocytes were washed twice in phosphate buffer solution (PBS) then re-suspended in PBS (1 vol PBS:1 vol packed cells). The erythrocyte suspension (100 ml) was placed on ice and carbon monoxide (CO) was bubbled through it for 2 hours. Saturation with CO (100%) was achieved under these conditions as detected with a CO-oximeter. Erythrocytes were packed and cross-linked with DTBP at 4° C. for different incubation times (from 1 to 24 h; 9 vol cross-linking solution: 1 vol packed cells). The cross-linking solution was prepared by dissolving DTBP in PBS (pH 7.8). After incubation DTBP was removed by repeated washing of the red cells in PBS (IEC Centra centrifuge for 10 min at 1008×g). Reversal of the cross-linking was carried out at room temperature with the reducing agent dithioerythritol (DTT) at a concentration of 10 mM in PBS (9 vol reducing solution: 1 vol packed cells) for 20 min or as indicated in the figure legends. DTT was removed by repeated washing of the red cells in PBS (IEC Centra centrifuge for 10 min at 1008×g). CO-treatment was reversed at room temperature using a hollow fiber membrane oxygenator model Capiox 308. Erythrocytes were processed through the oxygenator for 1 h. Saturation with oxygen (92%) was reached as detected with a CO-oximeter.
Erythrocytes were cross-linked with DTBP at different concentrations for different incubation times. 1 ml of the erythrocyte suspension was taken out at regular incubation times centrifuged and DTBP was removed (Eppendorf centrifuge for 3 min at 3000×g). Distilled water (1 ml) was added to the remaining packed cells. After 30 min the cells were again centrifugated (Eppendorf centrifuge for 3 min at 3000×g), and the supernatants were processed for hemolysis measurements. For determination of hemolysis the cyanmethemoglobin method was applied (see Brown in “Hematology: principles and procedures” pp. 29-31 (Lea and Febiger, eds., 1984)). Absorbance was measured at 540 nm and percent hemolysis was determined by Equation (1), supra, where the control sample was lysed in distilled water.
Erythrocyte stability in distilled water was tested after crosslinking reversal as well. Red blood cells were first cross-linked with DTBP then treated with DTT at different concentrations (from 1 to 10 mM) for different incubation times (from 5 to 20 min). Hemolysis in distilled water was measured as described above.

Setting [4] is: Homo sapiens, Erythrocyte, 4 h, read-out: hemolysis in distilled water.

Molecules are shown by their SMILES. Where two headings read alike, the source gives them in different places.

For the compound `COC(=N)CCSSCCC(=N)OC` [DTBP, Dimethyl-3,3′-dithiobispropionimidate], the oxygen content in assay [1] (5 mM DTBP 5 h, re-oxygenated then deoxygenated with nitrogen) is 2.9 Vol%O2; in assay [1] (5 mM DTBP for 5 h, re-oxygenated in membrane oxygenator), 7.3 Vol%O2. In addition, the figures for the “NaCl concentration at which hemolysis started” value in assay [2] (1 h cross-linked cells) and in assay [2] (3 h cross-linked cells) were 0.4 % NaCl and 0.30 % NaCl, respectively. Also, the figures for the “NaCl concentration at which total lysis was first measured” value in assay [2] (1 h cross-linked cells) and in assay [2] (3 h cross-linked cells) were 0.1 % NaCl and 0.0 % NaCl, respectively. In assay [3] (1 or 3 mM DTBP, even after prolonged incubation times), the “hemolysis in distilled water” value was “did not produce cells stable to hemolysis in distilled water”. Besides, the hemolysis at 5000 µM in assay [3] (Homo sapiens, Erythrocyte, 3 h, read-out: hemolysis in distilled water) worked out at 100%; in assay [3] (setting [4]), 88%; in assay [3] (Homo sapiens, Erythrocyte, 5 h, read-out: hemolysis in distilled water), 67%; in assay [3] (Homo sapiens, Erythrocyte, 7 h, read-out: hemolysis after the treatment with DTT) it was 35%; in assay [3] (Homo sapiens, Erythrocyte, 7 h, read-out: hemolysis in distilled water), 45%; in assay [3] (Homo sapiens, Erythrocyte, 24 h, read-out: hemolysis after the treatment with DTT) it was 100%. The hemolysis at 5000 µM in assay [3] (Homo sapiens, Erythrocyte, 24 h, read-out: hemolysis in distilled water) was determined as 10%. Besides, the hemolysis at 7000 µM in assay [3] (setting [4]) was found to be 21%. Further, the hemolysis at 10000 µM in assay [3] (setting [4]) was 0%. Also, the “stability in the presence of the reducing agent (DTT)” value in assay [3] (cells with lower degree of stabilization (5 mM DTBP 5 h, 67% lysis in water)) is given as “stable in the presence of the reducing agent”.
